According to article PMC12196347, “Evaluating Triazole-Substituted Pyrrolopyrimidines as CSF1R Inhibitors” (Molecules, 2025):
Like-named read-outs stand apart in the source and are kept apart here.

Legend:
CSF1R (FMS) = biological target: T1, CSF1R (FMS) (Homo sapiens, UniProt P07333); assay: Kinase panel profiling: CSF1R; type: biochemical; conditions: ATP equal to KM
T1 construct: purchased Thermo Fisher Scientific (Invitrogen) SelectScreen (Z'-LYTE)

FRAP1 (mTOR) = biological target: T2, FRAP1 (mTOR) (Homo sapiens, UniProt P42345); assay: Kinase panel profiling: FRAP1; type: biochemical; conditions: ATP equal to KM
T2 construct: purchased Thermo Fisher Scientific (Invitrogen) SelectScreen (Z'-LYTE)

ABL2 (Arg) = biological target: T3, ABL2 (Arg) (Homo sapiens, UniProt P42684); assay: Kinase panel profiling: ABL2; type: biochemical; conditions: ATP equal to KM
T3 construct: purchased Thermo Fisher Scientific (Invitrogen) SelectScreen (Z'-LYTE)

FYN = biological target: T4, FYN (Homo sapiens, UniProt P06241); assay: Kinase panel profiling: FYN; type: biochemical; conditions: ATP equal to KM
T4 construct: purchased Thermo Fisher Scientific (Invitrogen) SelectScreen (Z'-LYTE)

CSF1R = CSF1R (Homo sapiens, UniProt P07333); assay: CSF1R enzymatic IC50, Z-LYTE assay platform; type: biochemical
LYN A = biological target: T5, LYN A (Homo sapiens, UniProt P07948); assay: Kinase panel profiling: LYN A; type: biochemical; conditions: ATP equal to KM
T5 construct: purchased Thermo Fisher Scientific (Invitrogen) SelectScreen (Z'-LYTE)

NEK1 = biological target: T6, NEK1 (Homo sapiens, UniProt Q96PY6); assay: Kinase panel profiling: NEK1; type: biochemical; conditions: ATP equal to KM
T6 construct: purchased Thermo Fisher Scientific (Invitrogen) SelectScreen (Z'-LYTE)

YES1 = YES1 (Homo sapiens, UniProt P07947); assay: Kinase panel profiling: YES1; type: biochemical; conditions: ATP equal to KM
YES1, sequence (P07947 whole entry): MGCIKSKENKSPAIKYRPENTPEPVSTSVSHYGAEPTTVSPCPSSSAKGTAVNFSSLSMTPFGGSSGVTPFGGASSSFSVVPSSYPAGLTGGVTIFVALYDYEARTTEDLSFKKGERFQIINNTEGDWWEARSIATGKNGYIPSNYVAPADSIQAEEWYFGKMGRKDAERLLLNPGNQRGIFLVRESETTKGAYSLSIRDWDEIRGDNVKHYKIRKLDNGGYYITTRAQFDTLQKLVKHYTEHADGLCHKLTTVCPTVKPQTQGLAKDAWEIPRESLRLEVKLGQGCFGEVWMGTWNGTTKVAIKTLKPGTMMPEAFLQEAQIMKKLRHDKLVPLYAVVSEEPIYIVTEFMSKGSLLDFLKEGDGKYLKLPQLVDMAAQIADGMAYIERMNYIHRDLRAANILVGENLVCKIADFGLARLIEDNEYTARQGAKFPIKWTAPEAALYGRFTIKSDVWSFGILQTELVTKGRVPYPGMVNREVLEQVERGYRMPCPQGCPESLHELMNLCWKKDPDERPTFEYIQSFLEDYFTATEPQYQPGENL

MET (cMet) = biological target: T7, MET (cMet) (Homo sapiens, UniProt P08581); assay: Kinase panel profiling: MET; type: biochemical; conditions: ATP equal to KM
T7 construct: purchased Thermo Fisher Scientific (Invitrogen) SelectScreen (Z'-LYTE)

ITK = biological target: T8, ITK (Homo sapiens, UniProt Q08881); assay: Kinase panel profiling: ITK; type: biochemical; conditions: ATP equal to KM
T8 construct: purchased Thermo Fisher Scientific (Invitrogen) SelectScreen (Z'-LYTE)
T8 sequence (Q08881 1-620): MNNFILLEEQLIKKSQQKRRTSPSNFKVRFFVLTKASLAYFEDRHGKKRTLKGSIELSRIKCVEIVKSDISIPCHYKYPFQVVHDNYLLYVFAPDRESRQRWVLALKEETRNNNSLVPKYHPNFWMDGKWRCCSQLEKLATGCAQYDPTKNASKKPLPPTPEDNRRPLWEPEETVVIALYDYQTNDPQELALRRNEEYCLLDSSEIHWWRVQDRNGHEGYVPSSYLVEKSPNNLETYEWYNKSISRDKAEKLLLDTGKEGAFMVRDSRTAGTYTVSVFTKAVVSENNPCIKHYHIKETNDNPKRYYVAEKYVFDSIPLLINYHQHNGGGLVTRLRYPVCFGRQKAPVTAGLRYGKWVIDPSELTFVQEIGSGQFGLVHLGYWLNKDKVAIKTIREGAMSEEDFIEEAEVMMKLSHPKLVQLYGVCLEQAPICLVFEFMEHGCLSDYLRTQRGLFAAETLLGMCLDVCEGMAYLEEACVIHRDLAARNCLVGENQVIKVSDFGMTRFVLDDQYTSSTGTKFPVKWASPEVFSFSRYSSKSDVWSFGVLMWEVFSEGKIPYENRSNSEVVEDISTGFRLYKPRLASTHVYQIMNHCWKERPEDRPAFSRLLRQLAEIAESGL

EGFR (ErbB1) = biological target: T9, EGFR (ErbB1) (Homo sapiens, UniProt P00533); assay: Kinase panel profiling: EGFR; type: biochemical; conditions: ATP equal to KM
T9 construct: purchased Thermo Fisher Scientific (Invitrogen) SelectScreen (Z'-LYTE)

RET = RET (Homo sapiens, UniProt P07949); assay: Kinase panel profiling: RET; type: biochemical; conditions: ATP equal to KM
RET, sequence (P07949 29-1114): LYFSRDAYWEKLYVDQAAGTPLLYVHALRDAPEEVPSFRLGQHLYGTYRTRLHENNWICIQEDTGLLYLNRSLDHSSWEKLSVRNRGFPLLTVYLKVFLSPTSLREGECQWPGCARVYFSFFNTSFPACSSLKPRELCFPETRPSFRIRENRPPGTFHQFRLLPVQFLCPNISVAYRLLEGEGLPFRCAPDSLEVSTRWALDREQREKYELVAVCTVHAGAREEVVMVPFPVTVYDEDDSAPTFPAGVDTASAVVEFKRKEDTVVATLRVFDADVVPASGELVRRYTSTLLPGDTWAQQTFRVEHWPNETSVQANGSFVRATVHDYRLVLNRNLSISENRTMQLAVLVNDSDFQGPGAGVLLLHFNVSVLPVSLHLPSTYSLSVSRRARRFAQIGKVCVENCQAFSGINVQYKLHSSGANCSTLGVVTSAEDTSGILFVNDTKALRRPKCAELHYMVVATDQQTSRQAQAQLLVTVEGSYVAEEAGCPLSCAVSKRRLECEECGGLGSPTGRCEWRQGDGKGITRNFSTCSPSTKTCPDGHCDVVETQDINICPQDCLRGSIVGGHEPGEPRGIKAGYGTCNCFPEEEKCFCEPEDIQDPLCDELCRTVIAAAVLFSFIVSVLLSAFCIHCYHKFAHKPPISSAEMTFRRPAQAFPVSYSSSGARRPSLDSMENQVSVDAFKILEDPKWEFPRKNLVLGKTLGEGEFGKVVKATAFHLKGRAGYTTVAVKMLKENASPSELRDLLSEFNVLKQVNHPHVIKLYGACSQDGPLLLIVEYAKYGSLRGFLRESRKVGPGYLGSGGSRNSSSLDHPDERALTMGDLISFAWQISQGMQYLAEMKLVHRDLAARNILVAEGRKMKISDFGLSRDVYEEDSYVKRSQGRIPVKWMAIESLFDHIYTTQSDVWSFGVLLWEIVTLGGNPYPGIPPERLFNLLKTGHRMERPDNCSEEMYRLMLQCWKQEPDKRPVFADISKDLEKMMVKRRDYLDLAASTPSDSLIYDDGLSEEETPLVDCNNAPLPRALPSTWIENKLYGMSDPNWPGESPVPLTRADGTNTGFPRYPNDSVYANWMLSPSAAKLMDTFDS

[1] = Human liver microsome intrinsic clearance, Phase I; type: in vitro ADME; conditions: in vitro intrinsic clearance
JAK1 = biological target: T10, JAK1 (Homo sapiens, UniProt P23458); assay: Kinase panel profiling: JAK1; type: biochemical; conditions: ATP equal to KM
T10 construct: purchased Thermo Fisher Scientific (Invitrogen) SelectScreen (Z'-LYTE)
T10 sequence (P23458 whole entry): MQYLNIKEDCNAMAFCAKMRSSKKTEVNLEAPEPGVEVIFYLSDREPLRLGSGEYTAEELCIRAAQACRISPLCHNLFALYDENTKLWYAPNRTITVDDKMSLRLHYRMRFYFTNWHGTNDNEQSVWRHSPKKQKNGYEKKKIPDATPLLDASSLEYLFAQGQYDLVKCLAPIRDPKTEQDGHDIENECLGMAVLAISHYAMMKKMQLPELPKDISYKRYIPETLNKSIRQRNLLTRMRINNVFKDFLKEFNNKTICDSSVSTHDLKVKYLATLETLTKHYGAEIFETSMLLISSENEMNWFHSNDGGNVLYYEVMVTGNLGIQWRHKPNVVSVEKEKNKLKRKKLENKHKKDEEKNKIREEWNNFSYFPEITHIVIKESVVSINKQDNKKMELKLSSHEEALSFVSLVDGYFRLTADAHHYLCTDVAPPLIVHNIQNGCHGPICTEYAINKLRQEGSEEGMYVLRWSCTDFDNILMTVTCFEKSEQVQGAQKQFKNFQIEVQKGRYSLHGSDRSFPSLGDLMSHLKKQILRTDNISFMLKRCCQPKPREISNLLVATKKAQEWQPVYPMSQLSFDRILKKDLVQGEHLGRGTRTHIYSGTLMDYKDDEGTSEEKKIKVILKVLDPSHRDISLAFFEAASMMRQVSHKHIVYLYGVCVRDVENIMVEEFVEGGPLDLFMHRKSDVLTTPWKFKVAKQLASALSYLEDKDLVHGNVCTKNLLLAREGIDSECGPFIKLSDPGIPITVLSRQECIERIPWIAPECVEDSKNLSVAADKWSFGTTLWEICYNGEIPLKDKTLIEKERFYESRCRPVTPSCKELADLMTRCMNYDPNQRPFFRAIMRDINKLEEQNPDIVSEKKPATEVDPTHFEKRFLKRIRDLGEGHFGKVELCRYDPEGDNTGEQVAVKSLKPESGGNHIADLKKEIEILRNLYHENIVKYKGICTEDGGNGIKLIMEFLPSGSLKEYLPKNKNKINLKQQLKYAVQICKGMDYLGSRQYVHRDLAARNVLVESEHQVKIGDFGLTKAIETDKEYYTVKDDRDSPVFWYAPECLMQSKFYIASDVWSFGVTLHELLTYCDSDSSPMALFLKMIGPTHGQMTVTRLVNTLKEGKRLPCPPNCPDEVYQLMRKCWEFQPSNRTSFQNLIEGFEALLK

SRC = SRC (Homo sapiens, UniProt P12931); assay: Kinase panel profiling: SRC; type: biochemical; conditions: ATP equal to KM
SRC, sequence (P12931 whole entry): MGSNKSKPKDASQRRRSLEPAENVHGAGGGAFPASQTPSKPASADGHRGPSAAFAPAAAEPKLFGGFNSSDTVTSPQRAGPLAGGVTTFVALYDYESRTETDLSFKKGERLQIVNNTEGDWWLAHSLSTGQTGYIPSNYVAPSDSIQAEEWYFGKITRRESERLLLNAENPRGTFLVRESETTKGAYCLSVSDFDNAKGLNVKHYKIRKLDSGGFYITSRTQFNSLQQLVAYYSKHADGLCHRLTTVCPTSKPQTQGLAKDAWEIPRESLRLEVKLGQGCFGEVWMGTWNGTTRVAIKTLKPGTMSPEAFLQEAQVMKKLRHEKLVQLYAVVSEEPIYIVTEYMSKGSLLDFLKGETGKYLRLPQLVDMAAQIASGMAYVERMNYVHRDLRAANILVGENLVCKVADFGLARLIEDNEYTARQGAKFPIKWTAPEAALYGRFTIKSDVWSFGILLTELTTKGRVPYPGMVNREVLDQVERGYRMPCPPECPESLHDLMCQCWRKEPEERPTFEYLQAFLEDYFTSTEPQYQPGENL

LYN B = biological target: T11, LYN B (Homo sapiens, UniProt P07948); assay: Kinase panel profiling: LYN B; type: biochemical; conditions: ATP equal to KM
T11 construct: purchased Thermo Fisher Scientific (Invitrogen) SelectScreen (Z'-LYTE)

ERBB4 (HER4) = biological target: T12, ERBB4 (HER4) (Homo sapiens, UniProt Q15303); assay: Kinase panel profiling: ERBB4; type: biochemical; conditions: ATP equal to KM
T12 construct: purchased Thermo Fisher Scientific (Invitrogen) SelectScreen (Z'-LYTE)

AURKA (Aurora A) = biological target: T13, AURKA (Aurora A) (Homo sapiens, UniProt O14965); assay: Kinase panel profiling: AURKA; type: biochemical; conditions: ATP equal to KM
T13 construct: purchased Thermo Fisher Scientific (Invitrogen) SelectScreen (Z'-LYTE)
T13 sequence (O14965 1-403): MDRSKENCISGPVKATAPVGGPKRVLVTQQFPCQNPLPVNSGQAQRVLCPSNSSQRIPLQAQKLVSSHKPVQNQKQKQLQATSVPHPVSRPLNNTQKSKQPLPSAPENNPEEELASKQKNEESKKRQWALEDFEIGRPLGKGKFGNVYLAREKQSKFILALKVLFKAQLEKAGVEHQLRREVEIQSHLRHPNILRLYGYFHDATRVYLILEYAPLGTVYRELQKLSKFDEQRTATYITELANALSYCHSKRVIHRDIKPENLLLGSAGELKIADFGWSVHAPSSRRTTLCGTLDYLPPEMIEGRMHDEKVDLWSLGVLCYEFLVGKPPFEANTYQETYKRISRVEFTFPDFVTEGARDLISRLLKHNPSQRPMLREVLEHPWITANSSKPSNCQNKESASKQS

CSF1R Ba/F3 cells = assay: Cell viability assay, Ba/F3 cells engineered to be dependent on CSF1R; type: cell-based; conditions: Mus musculus, BaF3, Ba/F3 cells dependent on CSF1R, duplicate measurements
HCK = biological target: T14, HCK (Homo sapiens, UniProt P08631); assay: Kinase panel profiling: HCK; type: biochemical; conditions: ATP equal to KM
T14 construct: purchased Thermo Fisher Scientific (Invitrogen) SelectScreen (Z'-LYTE)
T14 sequence (P08631 whole entry): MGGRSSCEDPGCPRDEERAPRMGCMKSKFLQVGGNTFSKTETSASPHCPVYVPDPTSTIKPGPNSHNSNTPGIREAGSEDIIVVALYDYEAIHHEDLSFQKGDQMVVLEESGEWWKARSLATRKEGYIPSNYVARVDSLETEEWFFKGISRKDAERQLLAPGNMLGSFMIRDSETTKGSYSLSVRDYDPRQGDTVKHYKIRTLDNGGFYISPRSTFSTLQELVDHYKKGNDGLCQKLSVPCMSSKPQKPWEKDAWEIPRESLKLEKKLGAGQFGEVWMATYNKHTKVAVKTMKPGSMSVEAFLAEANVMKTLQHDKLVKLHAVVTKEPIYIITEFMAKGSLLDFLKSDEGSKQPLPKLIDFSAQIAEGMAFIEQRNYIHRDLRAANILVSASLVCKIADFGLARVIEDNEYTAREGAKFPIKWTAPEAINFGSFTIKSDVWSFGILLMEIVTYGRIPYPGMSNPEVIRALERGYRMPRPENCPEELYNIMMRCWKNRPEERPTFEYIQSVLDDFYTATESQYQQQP

JAK2 = biological target: T15, JAK2 (Homo sapiens, UniProt O60674); assay: Kinase panel profiling: JAK2; type: biochemical; conditions: ATP equal to KM
T15 construct: purchased Thermo Fisher Scientific (Invitrogen) SelectScreen (Z'-LYTE)
T15 sequence (O60674 whole entry): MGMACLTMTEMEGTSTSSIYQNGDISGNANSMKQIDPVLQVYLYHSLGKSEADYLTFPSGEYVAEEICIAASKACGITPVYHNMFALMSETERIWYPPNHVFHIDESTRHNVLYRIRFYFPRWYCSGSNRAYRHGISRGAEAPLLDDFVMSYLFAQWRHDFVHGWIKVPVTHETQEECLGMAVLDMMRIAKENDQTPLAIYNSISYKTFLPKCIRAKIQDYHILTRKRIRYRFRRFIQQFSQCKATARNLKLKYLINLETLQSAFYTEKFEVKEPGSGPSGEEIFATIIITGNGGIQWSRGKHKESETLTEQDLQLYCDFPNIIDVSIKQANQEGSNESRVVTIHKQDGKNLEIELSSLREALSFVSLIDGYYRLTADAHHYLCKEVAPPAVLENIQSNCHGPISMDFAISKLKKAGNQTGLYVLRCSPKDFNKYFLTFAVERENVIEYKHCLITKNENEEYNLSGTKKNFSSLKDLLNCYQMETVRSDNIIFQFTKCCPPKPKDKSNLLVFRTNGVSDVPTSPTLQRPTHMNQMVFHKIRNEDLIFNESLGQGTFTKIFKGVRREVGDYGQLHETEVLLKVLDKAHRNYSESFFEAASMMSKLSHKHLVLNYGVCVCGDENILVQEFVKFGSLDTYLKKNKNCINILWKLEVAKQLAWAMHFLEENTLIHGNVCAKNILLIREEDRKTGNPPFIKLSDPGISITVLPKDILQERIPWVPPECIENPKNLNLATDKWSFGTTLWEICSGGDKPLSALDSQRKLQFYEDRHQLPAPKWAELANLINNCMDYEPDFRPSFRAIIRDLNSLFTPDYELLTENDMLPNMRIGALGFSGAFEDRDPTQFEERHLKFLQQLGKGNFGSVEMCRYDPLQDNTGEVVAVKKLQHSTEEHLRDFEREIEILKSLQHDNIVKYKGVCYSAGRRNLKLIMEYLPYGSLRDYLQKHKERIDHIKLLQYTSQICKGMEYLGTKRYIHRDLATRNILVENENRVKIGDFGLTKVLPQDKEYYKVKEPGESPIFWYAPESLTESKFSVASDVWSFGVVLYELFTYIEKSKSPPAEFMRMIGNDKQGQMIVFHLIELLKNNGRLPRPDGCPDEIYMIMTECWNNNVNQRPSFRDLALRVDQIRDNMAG

[2] = 1000 nM test concentration, read-out: Average inhibition (%)
[3] = 1000 nM, first data point, read-out: Inhibition (%)
[4] = 1000 nM, second data point, read-out: Inhibition (%)

inhibition at 1 µM (CSF1R (FMS); [2]): 99% | inhibition at 1 µM (CSF1R (FMS); [3]): 99% | inhibition at 1 µM (FRAP1 (mTOR); [2]): -3% | inhibition at 1 µM (FRAP1 (mTOR); [3]): -4% | inhibition at 1 µM (FRAP1 (mTOR); [4]): -2% | inhibition at 1 µM (ABL2 (Arg); [2]): 100% | inhibition at 1 µM (ABL2 (Arg); [3]): 100% | inhibition at 1 µM (FYN; [2]): 76% | inhibition at 1 µM (FYN; [3]): 75% | inhibition at 1 µM (FYN; [4]): 77% | Hill coefficient (CSF1R; Z-LYTE CSF1R IC50 curve): 0.903 | IC50 (CSF1R; Z-LYTE, 10-point titrations in duplicates, ATP equal to KM ca. 10 µM, read-out: CSF1R enz. IC50): 0.4 ± 0.2 nM | inhibition at 1 µM (LYN A; [2]): 66% | inhibition at 1 µM (LYN A; [3]): 66% | inhibition at 1 µM (NEK1; [2]): 28% | inhibition at 1 µM (NEK1; [3]): 28% | inhibition at 1 µM (YES1; [2]): 101% | inhibition at 1 µM (YES1; [3]): 102% | inhibition at 1 µM (YES1; [4]): 99% | inhibition at 1 µM (MET (cMet); [2]): 13% | inhibition at 1 µM (MET (cMet); [3]): 10% | inhibition at 1 µM (MET (cMet); [4]): 16% | inhibition at 1 µM (ITK; [2]): 55% | inhibition at 1 µM (ITK; [3]): 58% | inhibition at 1 µM (ITK; [4]): 51% | inhibition at 1 µM (EGFR (ErbB1); [2]): 85% | inhibition at 1 µM (EGFR (ErbB1); [3]): 84% | inhibition at 1 µM (EGFR (ErbB1); [4]): 87% | inhibition at 1 µM (RET; [2]): 29% | inhibition at 1 µM (RET; [3]): 28% | inhibition at 1 µM (RET; [4]): 30% | HLM [1]: 53.7 µL/min/mg | inhibition at 1 µM (JAK1; [2]): 9% | inhibition at 1 µM (JAK1; [3]): 22% | inhibition at 1 µM (JAK1; [4]): -3% | inhibition at 1 µM (SRC; [2]): 96% | inhibition at 1 µM (SRC; [3]): 96% | inhibition at 1 µM (SRC; [4]): 95% | inhibition at 1 µM (LYN B; [2]): 76% | inhibition at 1 µM (LYN B; [3]): 74% | inhibition at 1 µM (LYN B; [4]): 79% | inhibition at 1 µM (ERBB4 (HER4); [2]): 14% | inhibition at 1 µM (ERBB4 (HER4); [3]): 13% | inhibition at 1 µM (ERBB4 (HER4); [4]): 15% | inhibition at 1 µM (AURKA (Aurora A); [2]): 38% | inhibition at 1 µM (AURKA (Aurora A); [3]): 35% | inhibition at 1 µM (AURKA (Aurora A); [4]): 40% | IC50 (CSF1R Ba/F3 cells): 300 nM | inhibition at 1 µM (HCK; [2]): 77% | inhibition at 1 µM (HCK; [3]): 77% | inhibition at 1 µM (HCK; [4]): 76% | inhibition at 1 µM (JAK2; [2]): 26% | inhibition at 1 µM (JAK2; [3]): 25% | inhibition at 1 µM (JAK2; [4]): 26%
Compound: Cc1cccc(CN(C)c2ncnc3[nH]c(-c4cn(Cc5cccnc5)nn4)cc23)c1 [Compound 27a, N-Methyl-N-(3-methylbenzyl)-6-(1-(pyridin-3-ylmethyl)-1H-1,2,3-triazol-4-yl)-7H-pyrrolo[2,3-d]pyrimidin-4-amine]
